Source: paper PMC3462168 (Analytical biochemistry, 2010)
Peptide text beside a SMILES is read from it. * marks the point of attachment. 5FAM = O=C1OC2(c3ccc(O)cc3Oc3cc(O)ccc32)c2ccc(C(=O)*)cc21

Assays:
[1] = molecular target: T1, hRSV F protein 5-Helix Bundle (5HB) (Human respiratory syncytial virus A, UniProt P03420); test: ELISA of Fl-C35 binding to 5HB; design: species or system hRSV strain A2; conditions: data in supporting information
EBV gH/gL complex [2] = conditions: 5 nM Fl-C35, increasing amount of EBV gH/gL
[3] = molecular target: T1, hRSV F protein 5-Helix Bundle (5HB); test: Competitive FP binding assay; design: species or system hRSV strain A2; conditions: for inhibition at 100 µM: read-out: % Inhibition (100 µM)
hRSV = test: Antiviral activity of C20; assay type: cell-based; conditions: read-out: EC50, antiviral activity; methods only in supporting information
hRSV 5HB = test: FP specificity cross-test: EBV gp42 FITC-30mer against hRSV 5HB; assay type: binding, hRSV strain A2; conditions: 5 nM FITC-30mer, wide range of 5HB concentrations
EBV gH/gL complex [4] = conditions: read-out: IC50 of binding to EBV gH/gL protein; cited from earlier work

## CC[C@H](C)[C@H](NC(=O)[C@H](Cc1ccccc1)NC(=O)[C@H](C)NC(=O)[C@H](CC(C)C)NC(=O)[C@H](CO)NC(=O)[C@H](CCC(N)=O)NC(=O)[C@H](CC(N)=O)NC(=O)[C@@H](NC(=O)[C@H](CCCCN)NC(=O)[C@H](CCC(=O)O)NC(=O)[C@H](CC(N)=O)NC(=O)[C@@H](NC(=O)[C@H](CCC(N)=O)NC(=O)[C@H](CO)NC(=O)[C@@H](NC(=O)[C@H](CO)NC(=O)[C@H](C)NC(=O)[C@H](CC(=O)O)NC(=O)[C@H](Cc1ccccc1)NC(=O)[C@H](CCC(=O)O)NC(=O)[C@H](CC(=O)O)NC(=O)[C@H](CO)NC(=O)[C@@H]1CCCN1C(=O)[C@H](Cc1ccccc1)NC(=O)[C@@H](NC(=O)[C@H](CC(C)C)NC(=O)[C@@H]1CCCN1C(=O)[C@H](CC(=O)O)NC(=O)[C@H](Cc1ccc(O)cc1)NC(=O)c1ccc2c(c1)C(=O)OC21c2ccc(O)cc2Oc2cc(O)ccc21)C(C)C)[C@@H](C)CC)C(C)C)[C@@H](C)CC)C(=O)N[C@@H](CCCNC(=N)N)C(=O)N[C@@H](CCCCN)C(=O)N[C@@H](CO)C(=O)N[C@@H](CC(=O)O)C(=O)N[C@@H](CCC(=O)O)C(=O)N[C@@H](CC(C)C)C(=O)O [Fl-C35] (5FAM-YDPLVFPSDEFDASISQVNEKINQSLAFIRKSDEL-OH)
[1]
  Specific binding of Fl-C35 to 5HB in ELISA: confirmed
EBV gH/gL complex [2]
  Binding of Fl-C35 to EBV gH/gL complex (negative control): no evidence of nonspecific binding

## CC[C@H](C)[C@H](NC(=O)[C@H](Cc1ccccc1)NC(=O)[C@H](C)NC(=O)[C@H](CC(C)C)NC(=O)[C@H](CO)NC(=O)[C@H](CCC(N)=O)NC(=O)[C@H](CC(N)=O)NC(=O)[C@@H](NC(=O)[C@H](CCCCN)NC(=O)[C@H](CCC(=O)O)NC(=O)[C@H](CC(N)=O)NC(=O)[C@@H](NC(=O)[C@H](CCC(N)=O)NC(=O)[C@H](CO)NC(=O)[C@@H](NC(=O)[C@H](CO)NC(=O)[C@H](C)NC(=O)[C@H](CC(=O)O)NC(=O)[C@H](Cc1ccccc1)NC(=O)[C@H](CCC(=O)O)NC(=O)[C@H](CC(=O)O)NC(=O)[C@H](CO)NC(=O)[C@@H]1CCCN1C(=O)[C@H](Cc1ccccc1)NC(=O)[C@@H](NC(=O)[C@H](CC(C)C)NC(=O)[C@@H]1CCCN1C(=O)[C@H](CC(=O)O)NC(=O)[C@@H](N)Cc1ccc(O)cc1)C(C)C)[C@@H](C)CC)C(C)C)[C@@H](C)CC)C(=O)N[C@@H](CCCNC(=N)N)C(=O)N[C@@H](CCCCN)C(=O)N[C@@H](CO)C(=O)N[C@@H](CC(=O)O)C(=O)N[C@@H](CCC(=O)O)C(=O)N[C@@H](CC(C)C)C(=O)O [C35] (H-YDPLVFPSDEFDASISQVNEKINQSLAFIRKSDEL-OH)
[3]
  IC50: 38.5 nM
  inhibition at 100 µM: 100%

## CC[C@H](C)[C@H](NC(=O)[C@H](Cc1ccccc1)NC(=O)[C@H](C)NC(=O)[C@H](CC(C)C)NC(=O)[C@H](CO)NC(=O)[C@H](CCC(N)=O)NC(=O)[C@H](CC(N)=O)NC(=O)[C@@H](NC(=O)[C@H](CCCCN)NC(=O)[C@H](CCC(=O)O)NC(=O)[C@H](CC(N)=O)NC(=O)[C@@H](NC(=O)[C@H](CCC(N)=O)NC(=O)[C@H](CO)NC(=O)[C@@H](NC(=O)[C@H](CO)NC(=O)[C@H](C)NC(=O)[C@H](CC(=O)O)NC(=O)[C@H](Cc1ccccc1)NC(=O)[C@H](CCC(=O)O)NC(=O)[C@H](CC(=O)O)NC(=O)[C@H](CO)NC(=O)[C@@H]1CCCN1C(=O)[C@H](Cc1ccccc1)NC(=O)[C@@H](N)C(C)C)[C@@H](C)CC)C(C)C)[C@@H](C)CC)C(=O)N[C@@H](CCCNC(=N)N)C(=O)N[C@@H](CCCCN)C(=O)N[C@@H](CO)C(=O)N[C@@H](CC(=O)O)C(=O)N[C@@H](CCC(=O)O)C(=O)O [C30] (H-VFPSDEFDASISQVNEKINQSLAFIRKSDE-OH)
[3]
  inhibition at 100 µM: 100%

## CC[C@H](C)[C@H](N)C(=O)N[C@@H](CO)C(=O)N[C@@H](CCC(N)=O)C(=O)N[C@H](C(=O)N[C@@H](CC(N)=O)C(=O)N[C@@H](CCC(=O)O)C(=O)N[C@@H](CCCCN)C(=O)N[C@H](C(=O)N[C@@H](CC(N)=O)C(=O)N[C@@H](CCC(N)=O)C(=O)N[C@@H](CO)C(=O)N[C@@H](CC(C)C)C(=O)N[C@@H](C)C(=O)N[C@@H](Cc1ccccc1)C(=O)N[C@H](C(=O)N[C@@H](CCCNC(=N)N)C(=O)N[C@@H](CCCCN)C(=O)N[C@@H](CO)C(=O)N[C@@H](CC(=O)O)C(=O)N[C@@H](CCC(=O)O)C(=O)O)[C@@H](C)CC)[C@@H](C)CC)C(C)C [C20] (H-ISQVNEKINQSLAFIRKSDE-OH)
[3]
  inhibition at 100 µM: > 90%
hRSV
  EC50: > 12500 nM

## KPNVEVWPVAAPPPVAEQEYGDKEVKLPHW [FITC-30mer]
hRSV 5HB
  Binding of EBV gp42 FITC-30mer to hRSV 5HB (negative control): no evidence of nonspecific binding
EBV gH/gL complex [4]
  IC50: 1.3 nM
